Experimental data taken from patent publication US20040176431A1, “Antiproliferative 2-(sulfo-phenyl)-aminothiazole derivatives and pharmaceutical compositions, and methods for their use” (Pfizer, Inc., priority 2003, published 2004).
Where a name gives a salt, the structure may show the parent alone.

How the values were obtained:
[1] = molecular target: T1, CDK2/cyclin A (Homo sapiens, UniProt P24941); assay: Inhibition of CDK2/Cyclin A retinoblastoma kinase activity; type: biochemical; conditions: apparent Ki, Rb fragment substrate
T1 construct: made in house; host or cells: CDK2: insect cells (baculovirus); cyclin A: E. coli, then limited proteolysis
Experimental: Cyclin-dependent kinase activity was measured by quantifying the enzyme-catalyzed, time-dependent incorporation of radioactive phosphate from [^32P]ATP or [^33P]ATP into a protein substrate. Unless noted otherwise, assays were performed in 96-well plates in a total volume of 50 μL, in the presence of 10 mM HEPES (N-[2-hydroxyethyl]piperazine-N′-[2-ethanesulfonic acid]) (pH 7.4), 10 mM MgCl2, 25 μM adenosine triphosphate (ATP), 1 mg/mL ovalbumin, 5 μg/mL leupeptin, 1 mM dithiothreitol, 10 mM β-glycerophosphate, 0.1 mM sodium vanadate, 1 mM sodium fluoride, 2.5 mM ethylene glycol-bis(β-aminoethyl ether)-N,N,N′N′-tetraacetic acid (EGTA), 2% (v/v) dimethylsulfoxide, and 0.03-0.4 μCi [^32/33P]ATP per reaction. Reactions were initiated with enzyme, incubated at 30° C., and terminated after 20 minutes by the addition of ethylenediaminetetraacetic acid (EDTA) to 250 mM. The phosphorylated substrate was then captured on a nitrocellulose or phosphocellulose membrane using a 96-well filtration manifold, and unincorporated radioactivity was removed by repeated washing with 0.85% phosphoric acid. Radioactivity was quantified by exposing the dried membranes to a phosphorimager.
Inhibition was measured relative to control wells that contained all reaction components including 2% (v/v) DMSO but no compound, after subtraction of background radioactivity measured in the absence of enzyme. Apparent Ki values of discrete compounds were measured by assaying enzyme activity in the presence of different inhibitor compound concentrations and subtracting the background radioactivity measured in the absence of enzyme. The kinetic parameters (kcat, Km for ATP) were measured for each enzyme under the usual assay conditions by determining the dependence of initial rates on ATP concentration. Inhibition data were fit to an equation for competitive inhibition using Kaleidagraph (Synergy Software), or were fit to an equation for competitive tight-binding inhibition using the software KineTic (BioKin, Ltd.).
CDK2 was purified using published methodology (Rosenblatt et al., J. Mol. Biol., 230, 1317-1319 (1993)) from insect cells that had been infected with a baculovirus expression vector. Cyclin A was purified from E. coli cells expressing full-length recombinant cyclin A, and a truncated cyclin A construct was generated by limited proteolysis and purified as described previously (Jeffrey et al., Nature, 376, 313-320 (1995)). A complex of CDK2 and proteolyzed cyclin A was prepared and purified by gel filtration. The substrate for this assay was the same Rb substrate fragment used for the CDK4 assays, and the methodology of the CDK2/delta cyclin A and the CDK4/delta cyclin D3 assays was essentially the same, except that CDK2 was present at 10 nM or 19 nM. The duration of the assay was 60 or 75 minutes, during which the time-dependence of product formation was linear and initial rate conditions were met.

[2] = system: HCT-116 cells; assay: Inhibition of cell growth (MTT tetrazolium salt assay); type: cell-based; conditions: Homo sapiens; for IC50: read-out: HCT116 IC50; for IC90: read-out: HCT116 IC90
Experimental: Inhibition of cell growth was measured using the tetrazolium salt assay, which is based on the ability of viable cells to reduce 3-(4,5-dimethylthiazol-2-yl)-2,5-[2H]-diphenyltetrazolium bromide (MTT) to formazan (Mosmann, J. Immunol. Meth., 65, 55-63 (1983)). The water-insoluble purple formazan product was then detected spectrophotometrically. HCT-116 cells were grown in 96-well plates. Cells were plated in the appropriate medium at a volume of 135 μl/well in either McCoy's 5A Medium. Plates were incubated for four hours before addition of inhibitor compounds. Different concentrations of inhibitor compounds were added in 0.5% (v/v) dimethylsulfoxide (15 μL/well), and cells were incubated at 37° C. (5% CO2) for four to six days (depending on cell type). At the end of the incubation, MTT was added to a final concentration of 0.2 mg/mL, and cells were incubated for 4 hours more at 37° C. After centrifugation of the plates and removal of medium, the absorbance of the formazan (solubilized in dimethylsulfoxide) was measured at 540 nm. […] All results were compared to control cells treated only with 0.5% (v/v) dimethylsulfoxide.

[3] = molecular target: T2, CDK4/cyclin D3 (Homo sapiens, UniProt P11802); assay: Inhibition of CDK4/Cyclin D retinoblastoma kinase activity; type: biochemical; conditions: apparent Ki, Rb fragment substrate
T2 construct: made in house; host or cells: insect cells (baculovirus co-infection)
T2 sequence (P11802 whole entry, the tested form may be a part): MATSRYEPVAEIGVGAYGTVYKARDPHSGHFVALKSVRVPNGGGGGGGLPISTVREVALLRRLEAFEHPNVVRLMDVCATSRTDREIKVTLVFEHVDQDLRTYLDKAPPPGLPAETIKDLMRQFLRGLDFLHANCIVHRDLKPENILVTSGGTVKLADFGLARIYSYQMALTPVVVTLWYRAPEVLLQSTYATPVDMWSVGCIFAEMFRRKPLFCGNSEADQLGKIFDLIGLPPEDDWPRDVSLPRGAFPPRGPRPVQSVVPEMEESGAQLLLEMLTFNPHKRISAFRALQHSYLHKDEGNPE
T2 sequence (P30281 1-264 partner limits assumed): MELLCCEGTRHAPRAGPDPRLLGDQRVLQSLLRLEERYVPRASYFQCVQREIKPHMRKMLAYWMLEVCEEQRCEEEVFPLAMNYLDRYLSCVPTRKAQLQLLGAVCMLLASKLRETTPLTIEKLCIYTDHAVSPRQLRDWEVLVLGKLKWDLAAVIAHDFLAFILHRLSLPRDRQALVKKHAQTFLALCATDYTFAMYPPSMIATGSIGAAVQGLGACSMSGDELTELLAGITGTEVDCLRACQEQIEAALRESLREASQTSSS
Summary of the method: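 Human CDK4 with truncated cyclin D3 (1-264) from baculovirus-infected insect cells, 5 nM, phosphorylating His-tagged Rb fragment (386-928) with 25 μM [32P/33P]ATP in pH 7.4 HEPES/MgCl2, 2% DMSO, 30° C., 20 min (60 min for tight binders). Filter capture, phosphorimager; apparent Ki from competitive or tight-binding competitive fits.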

Row | Compound | Ki [1] [µM] | IC50 [2] [µM] | IC90 [2] [µM] | Ki [3] [µM]
1 | Nc1nc(Nc2ccc(S(=O)(=O)NCCc3cccs3)cc2)sc1C(=O)c1c(F)cccc1F [A(23), 4-[4-Amino-5-(2,6-difluoro-benzoyl)-thiazol-2-ylamino]-N-(2-thiophen-2-yl-ethyl)-benzenesulfonamide] | 0.013 | 0.44 | 1.2 | 0.017
2 | Nc1nc(Nc2ccc(S(=O)(=O)NCCc3ccccn3)cc2)sc1C(=O)c1c(F)cccc1F [A(24), 4-[4-Amino-5-(2,6-difluoro-benzoyl)-thiazol-2-ylamino]-N-(2-pyridin-2-yl-ethyl)-benzenesulfonamide] | 0.005 | 1.2 | 2.6 | 0.018
3 | Nc1nc(Nc2ccc(S(=O)(=O)NCc3cc4ccccc4o3)cc2)sc1C(=O)c1c(F)cccc1F [A(34), 4-[4-Amino-5-(2,6-difluoro-benzoyl)-thiazol-2-ylamino]-N-benzofuran-2-ylmethyl-benzenesulfonamide] | < 0.01 | 0.78 | 1.8 | 0.0051
4 | Cc1ccc(CNS(=O)(=O)c2ccc(Nc3nc(N)c(C(=O)c4c(F)cc(F)cc4F)s3)cc2)o1 [B(1), 4-[4-Amino-5-(2,4,6-trifluoro-benzoyl)-thiazol-2-ylamino]-N-(5-methyl-furan-2-ylmethyl)-benzenesulfonamide] | < 0.01 | 0.9 | 2 | 0.1
5 | Nc1nc(Nc2ccc(S(=O)(=O)NC3CCNCC3)cc2)sc1C(=O)c1c(F)cccc1F [BB(1), 4-[4-Amino-5-(2,6-difluoro-benzoyl)-thiazol-2-ylamino]-N-piperidin-4-yl-benzenesulfonamide] | 0.013 | 22 | > 50 | 0.013
6 | Nc1nc(Nc2ccc(S(=O)(=O)Nc3ccccc3)cc2)sc1C(=O)c1c(F)cccc1F [C(1), 4-[4-Amino-5-(2,6-difluoro-benzoyl)-thiazol-2-ylamino]-N-phenyl-benzenesulfonamide] | 0.017 | 0.87 | 1.9 | 0.076
7 | Cc1ccsc1C(=O)c1sc(Nc2ccc(S(N)(=O)=O)cc2)nc1N [C(48)*, reference compound] | 0.011 | 0.34 |  | 0.0191
8 | Nc1nc(Nc2ccc(S(=O)(=O)NCC3CCCNC3)cc2)sc1C(=O)c1c(F)cccc1F (stereo not drawn) [D(1), 4-[4-Amino-5-(2,6-difluoro-benzoyl)-thiazol-2-ylamino]-N-piperidin-3-ylmethyl-benzenesulfonamide] | 0.018 | 17 | > 25 | 0.012
9 | Nc1nc(Nc2ccc(S(=O)(=O)NCc3cc(Cl)ccc3Cl)cc2)sc1C(=O)c1c(F)cccc1F [Example A(7), 4-[4-Amino-5-(2,6-difluoro-benzoyl)-thiazol-2-ylamino]-N-(2,5-dichloro-benzyl)-benzenesulfonamide] | 0.011 |  |  | 0.062
10 | Nc1nc(Nc2ccc(Sc3ccccn3)cc2)sc1C(=O)c1c(Cl)cccc1Cl [W(2), 4-Amino-5-(2,6-dichloro-benzoyl)-2-[4-(pyridin-2-ylthio)-phenylamino]-thiazole] | 0.5 |  |  | 0.19
11 | Nc1nc(Nc2cccc(S)c2)sc1C(=O)c1c(Cl)cccc1Cl [X(2)] | 1.6 |  |  | 
12 | C[S+]([O-])c1cccc(Nc2nc(N)c(C(=O)c3c(Cl)cccc3Cl)s2)c1 (stereo not drawn) [Z(1), 4-Amino-5-(2,6-benzoyl)-2-(3-methanesulfinyl-phenylamino)-thiazole] | 0.45 |  |  | 

More lines, now with the values ahead:

Row | Ki [1] [µM] | IC50 [2] [µM] | IC90 [2] [µM] | Ki [3] [µM] | Compound
13 | 0.0041 | 3.4 | 5 | 0.016 | Nc1nc(Nc2ccc(S(=O)(=O)NCCCN3CCCC3=O)cc2)sc1C(=O)c1c(F)cccc1F [A(25), 4-[4-Amino-5-(2,6-difluoro-benzoyl)-thiazol-2-ylamino]-N-[3-(2-oxo-pyrrolidin-1-yl)-propyl]-benzenesulfonamide]
14 | 0.0029 | 0.85 | 3.3 | 0.003 | CCN(CC)CCCCNS(=O)(=O)c1ccc(Nc2nc(N)c(C(=O)c3c(F)cccc3F)s2)cc1 [A(26), 4-[4-Amino-5-(2,6-difluoro-benzoyl)-thiazol-2-ylamino]-N-(4-diethylamino-butyl)-benzenesulfonamide]
15 | 0.0046 | 0.4 | 1 | 0.057 | Nc1nc(Nc2ccc(S(=O)(=O)NCc3cccs3)cc2)sc1C(=O)c1c(F)cccc1F [A(27), 4-[4-Amino-5-(2,6-difluoro-benzoyl)-thiazol-2-ylamino]-N-thiophen-2-ylmethyl-benzenesulfonamide]
16 | 0.0026 | 1.2 | 2.8 | 0.012 | Nc1nc(Nc2ccc(S(=O)(=O)NCCCCCO)cc2)sc1C(=O)c1c(F)cccc1F [A(28), 4-[4-Amino-5-(2,6-difluoro-benzoyl)-thiazol-2-ylamino]-N-(5-hydroxy-pentyl)-benzenesulfonamide]
17 | < 0.005 | 0.19 | 0.56 | 0.015 | Cc1ccc(CNS(=O)(=O)c2ccc(Nc3nc(N)c(C(=O)c4c(F)cccc4F)s3)cc2)s1 [A(29), 4-[4-Amino-5-(2,6-difluoro-benzoyl)-thiazol-2-ylamino]-N-(5-methyl-thiophen-2-ylmethyl)-benzenesulfonamide]
18 | < 0.005 | 0.31 | 0.64 | 0.009 | Cc1ccc(C(C)NS(=O)(=O)c2ccc(Nc3nc(N)c(C(=O)c4c(F)cccc4F)s3)cc2)o1 (stereo not drawn) [A(30), 4-[4-Amino-5-(2,6-difluoro-benzoyl)-thiazol-2-ylamino]-N-[1-(5-methyl-furan-2-yl)-ethyl]-benzenesulfonamide]
19 | < 0.005 | 0.14 | 0.38 | 0.016 | Nc1nc(Nc2ccc(S(=O)(=O)NCCCc3ccccc3)cc2)sc1C(=O)c1c(F)cccc1F [A(32), 4-[4-Amino-5-(2,6-difluoro-benzoyl)-thiazol-2-ylamino]-N-(3-phenyl-propyl)-benzenesulfonamide]
20 | 0.0049 | 1.2 | 3.8 | 0.035 | CC(C)CCCCNS(=O)(=O)c1ccc(Nc2nc(N)c(C(=O)c3c(F)cccc3F)s2)cc1 [A(37), 4-[4-Amino-5-(2,6-difluoro-benzoyl)-thiazol-2-ylamino]-N-(5-methyl-hexyl)-benzenesulfonamide]
21 | 0.00048 |  |  | 0.0039 | Cn1cncc1CNS(=O)(=O)c1ccc(Nc2nc(N)c(C(=O)c3c(F)cccc3F)s2)cc1 [A(38), 4-[4-Amino-5-(2,6-difluoro-benzoyl)-thiazol-2-ylamino]-N-(1-methyl-1H-imidazol-5-ylmethyl)-benzenesulfonamide Trifluoroacetic Acid Salt]
22 | 0.0013 | 0.98 | 2.3 | 0.0062 | CC(CCCC(C)(C)O)NS(=O)(=O)c1ccc(Nc2nc(N)c(C(=O)c3c(F)cc(F)cc3F)s2)cc1 (stereo not drawn) [B(2), 4-[4-Amino-5-(2,4,6-trifluoro-benzoyl)-thiazol-2-ylamino]-N-(5-hydroxy-1,5-dimethyl-hexyl)-benzenesulfonamide]
